{"source": "paper PMC8062851", "about": "“2-Methoxyestradiol and its derivatives inhibit store-operated Ca^2+ entry in T cells: Identification of a new and potent inhibitor” (Biochimica et Biophysica Acta. Molecular Cell Research, 2021)", "key": {"TMBP cells": {"tested_on": "TMBP cells", "test": "In vitro activation of TMBP cells by MBP, cytokine mRNA by qPCR", "format": "cell-based, rat", "details": "TMBP cells + MBP; 6 h; qPCR; STX564 vs Synta66", "experimental": "Myelin basic protein (MBP)-reactive CD4^+ T cells retrovirally transduced to express enhanced GFP (TMBP cells) were established as previously reported. In brief, 6–8 week old female Lewis rats were immunized subcutaneously with 150 μl of emulsion consisting of equal parts of MBP (stock concentration: 1 mg/ml) and complete Freund's adjuvant containing heat-inactivated Mycobacterium tuberculosis extract (Difco; stock concentration: 2 mg/ml). Draining lymph nodes were harvested and passed through a cell strainer (40 μm) 9–10 days after immunization. The cell suspension was co-cultured with GP + E86 packaging cell lines producing replication-deficient retroviruses in the presence of 10 μg/ml MBP. Murine IL-2 was added to the culture for T cell expansion from day 2–4 after stimulation. The cell lines underwent 3–4 cycles of stimulation before being used for in vitro and in vivo experiments. […] Upon stimulation, they produced interferon-γ and IL-17.\nIn vitro activation assays were performed in 96-well plates. […]. TMBP cell activation on mRNA level was determined using qPCR and on surface protein level using surface marker staining and subsequent flow cytometry analysis.\nTotal RNA was isolated using the standard TRIzol method. cDNA was synthesized using the RevertAid First Strand cDNA Synthesis Kit (Thermo Fisher Scientific). Quantitative PCR (qPCR) was performed using the StepOnePlus™ Real-Time PCR System (Applied Biosystems), as previously described [[23], [24], [25]]. Rat TMBP cell data were obtained from three to four independent duplicate measurements. β-actin served as housekeeping gene. Human PBMC data were obtained from two independent healthy donors and duplicate measurements (representative data of one donor are shown). HPRT served as housekeeping gene. For all probes (TaqMan), a combination of 5′-FAM and 3′-TAMRA quencher was used as described."}, "KV1.3 channels": {"tested_on": "KV1.3 channels", "parameters": "method as in patent WO2005/009954A2 (compound 66)", "details": "ref patent WO2005/009954A2 (compound 66); cited from earlier work"}, "IP3 receptors": {"tested_on": "IP3 receptors", "test": "IP3-evoked Ca2+ release in permeabilized Jurkat T cells", "format": "cell-based, human", "details": "2 μM IP3", "experimental": "(§1) 3 ∗ 10^7 Jurkat T-lymphocytes per measurement were centrifuged at 450 ×g for 5 min at room temperature. The pellet was rinsed twice, each time using 10 ml permeabilization buffer 1 (120 mM KCl, 10 mM NaCl, 1.2 mM MgCl2, 0.533 mM CaCl2, 1 mM EGTA and 10 mM HEPES, pH 7.2 (KOH), sterile filtered). Subsequently, the pellet was resuspended in 2 ml permeabilization buffer 1 containing 80 μg/ml saponin (Fluka) and the cells were incubated for 10 min at 37 °C. Subsequently, the cells were centrifuged at 450 ×g for 5 min at room temperature and the cell pellet was washed once in 10 ml permeabilization buffer 2 (120 mM KCl, 10 mM NaCl, 1.2 mM MgCl2 and 10 mM HEPES, pH 7.2 (KOH), sterile filtered). Finally, the cells were taken up in 1 ml permeabilization buffer 2, placed into a cuvette and measured at the fluorescence spectrophotometer. Before the start of the measurement, 0.5 μl of 1 mM Fura2 free acid (dissolved in pure water, final concentration: 0.5 μM), 5 μl of 5 mg/ml creatinkinase (dissolved in permeabilization buffer 2, final concentration: 25 μg/ml, 20 U/ml, Roche) and 10 μl of 2 M creatin phosphate (dissolved in permeabilization buffer 2, final concentration: 20 mM, Calbiochem) were added. Fura2 was used to measure the Ca^2+ concentration and creatinkinase and creatin phosphate were used as ATP-regenerating system. The measurement was controlled by FL Solutions (Version 4.1, Hitachi High-Technologies Corporation). Fura2 was alternatively excited every 2 s at 340 ± 5 nm and 380 ± 5 nm, each 400 ms apart. Fluorescence intensity was measured at an emission wavelength of 495 ± 5 nm for both excitation wavelengths. […] Ca^2+ concentrations were calculated according to Grynkiewicz et al. as described earlier in Section 2.4.\n(§2) As a quantitative read-out for inhibition of IP3 receptors, the peak [Ca^2+] after IP3 addition was subtracted from the mean [Ca^2+] between 25 and 75 s before IP3 addition (dPeak). […] The rate constant K of the fitted data was used as a quantitative read-out for SERCA pump activity and its inhibition."}, "[1]": {"tested_on": "alpha-dendrotoxin sensitive KV channels, likely KV1.1, KV1.2 and/or KV1.6", "details": "10 μM; ref Di Sabatino et al. [36]; cited from earlier work"}, "SERCA pumps": {"tested_on": "SERCA pumps", "test": "SERCA activity (ATP-induced Ca2+ reuptake) in permeabilized Jurkat T cells", "format": "cell-based, human", "experimental": "as §1, §2"}, "ORAI1": {"target": "T1, ORAI1 (Homo sapiens, UniProt Q96D31)", "T1 construct": "host or cells: Jurkat T-lymphocytes (electroporation)", "T1 sequence (Q96D31 whole entry)": "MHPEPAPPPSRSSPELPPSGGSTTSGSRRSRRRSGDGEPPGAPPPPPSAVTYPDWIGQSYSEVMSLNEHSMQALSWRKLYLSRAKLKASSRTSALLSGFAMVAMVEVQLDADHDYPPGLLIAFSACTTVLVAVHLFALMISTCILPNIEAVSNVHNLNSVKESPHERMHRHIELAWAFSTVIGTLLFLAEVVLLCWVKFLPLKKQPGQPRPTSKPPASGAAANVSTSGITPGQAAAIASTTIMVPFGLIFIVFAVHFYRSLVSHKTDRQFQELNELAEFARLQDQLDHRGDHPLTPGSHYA", "test": "Live cell Ca2+ imaging of G-GECO1.2-ORAI1 transfected Jurkat T cells", "format": "cell-based", "details": "10 μM", "experimental": "12.5 ∗ 10^6 Jurkat T–lymphocytes were pelleted at 400 to 450 ×g for 5 min at room temperature and pellets were dissolved in 500 μl RPMI 1640 medium (Gibco) without phenol red containing L-glutamine, supplemented with 7.5% (v/v) NCS. 30 μg plasmid-DNA (G-GECO1.2-ORAI1) was transferred into a 4 mm electroporation cuvette (Biozym, Austria) and the Jurkat T-lymphocytes were added. G-GECO1.2-ORAI1 was a gift from Michael Cahalan, USA (Addgene plasmid # 73562). After an incubation of 5 min at 37 °C, cells were electroporated with 960 μF and 240 V (τ: […]). […]\n17 to 22 h after electroporation, 5 ∗ 10^4 cells were pelleted at 400–450 ×g for 5 min at room temperature and cell pellets were dissolved in 50 μl nominal Ca^2+ free buffer. […] The fluorophore was excited at 488 nm every 2 s for 30 min and fluorescence was measured at 520 nm using Volocity (Version 6.3, Perkin Elmer).\nUsing ImageJ (Version 1.51 k, National Institutes of Health, USA) the pictures were analyzed for mean fluorescence in the outer ring of Jurkat T-lymphocytes employing ring-shaped regions of interest (ROIs). […] The mean background fluorescence values were subtracted from the signal in every image. For quantitative analysis, fluorescence intensities were normalized to the first fluorescence intensity (F/F0)."}}, "note": "“Also recorded” adds a separate entry of the source."}
{"smiles": "COc1ccc(OC)c(-c2ccc(NC(=O)c3ccncc3F)cc2)c1", "note": "[Synta66]", "values": [{"measurement": "concentration at which interferon-γ expression was significantly antagonized", "setting": "TMBP cells", "result": "≥ 10", "unit": "µM"}, {"measurement": "inhibition of KV1.3 channels", "setting": "KV1.3 channels", "result": "inhibits KV1.3 channels"}, {"measurement": "effect on IP3-evoked Ca2+ release", "setting": "IP3 receptors", "result": "Neither STX564 nor Synta66 affected IP3-evoked Ca^2+ release significantly; also recorded: did not inhibit the Ca^2+ release by IP3"}, {"measurement": "inhibition of alpha-dendrotoxin sensitive KV channels", "setting": "[1]", "result": "< 10", "unit": "%"}, {"measurement": "effect on SERCA activity (initial slope of [Ca2+] upon ATP addition)", "setting": "SERCA pumps", "result": "Neither STX564, Synta66 nor vehicle DMSO affected ATP-induced Ca^2+ reuptake by SERCA pumps; also recorded: neither STX564 nor Synta66 showed any effect"}, {"measurement": "SOCE by ORAI1 (G-GECO1.2-ORAI1 fluorescence)", "setting": "ORAI1", "result": "almost completely diminished"}]}
